{"source": "patent US9623031B2", "about": "“Compositions, methods and kits for treating cancer” (priority 2011, dated 2017)", "system": "NF-κB", "assay": "NF-κB gel shift in LPS-treated RAW264.7 macrophages", "assay_type": "cell-based, mouse", "details": "0.25 or 1.0 μM, then LPS 100 ng/mL 4 h", "experimental": "The effect of Δ^12-PGJ3 on NF-κB and PPAPγ was examined. RAW264.7 macrophages were pretreated with DMSO, Δ^12-PGJ3 at 0.25, or 1.0 μM and subsequently stimulated with 100 ng/mL E. coli LPS for 4 h. The nuclear extracts were prepared and the binding of NΦκB to a ^32P-labeled consensus double stranded oligonucleotide probe was examined using gel shift analysis. NS=non-specific band. Lanes 1-5 represent untreated, LPS alone, DMSO+LPS, Δ^12-PGJ3 (0.25 μM)+LPS, and Δ^12-PGJ3 (1 μM)+LPS, respectively. BCR-ABL LSCs were sorted from spleens, plated, and treated with PBS, 25 nM Δ^12-PGJ3, or 9,10-dihydro 15d-PGJ2 for 0, 2 or 6 h. The cells were harvested and nuclear extracts were prepared using standard techniques. Ten μg of nuclear protein was used from each sample for the gel-shift reaction. As a positive control for NF-κB, nuclear extract from LPS-treated murine (RAW264.7) macrophages was used. Anti-p50 Ab was used with this positive control for a supershift, and excess ‘cold’ probe was used with the positive control as a ‘cold competitor’. A Western blot analysis was performed of the above-mentioned nuclear extracts from BCR-ABL LSCs treated with PBS, Δ^12-PGJ3 or 9,10-dihydro-15d-PGJ2 for various time periods (0-6 h) probed with anti-p65 and anti-β-actin antibodies. […]", "data": [{"compound": "CC/C=C\\C[C@H](O)C/C=C1/C(=O)C=C[C@@H]1C/C=C\\CCCC(=O)O", "note": "[Δ^12-PGJ3, Δ^12-prostaglandin J3]", "values": [{"measurement": "NF-κB pathway, gel shift", "result": "did not affect the NF-κB pathway"}]}]}
